These results are taken from patent publication US20250304990A1, “HERBICIDE RESISTANCE” (SYNGENTA CROP PROTECTION AG, priority 2021, published 2025).

Structures are written as SMILES.

Common to all, as to assay: Dose response test, growth in 96-well plates
Assay type in all cases: cell-based, Chlorella fusca

One assay deals with Cf-496-8. The conditions noted are these: Cf-496-8 (M278L_F279I); 2-fold dilutions from 100 ppm. Here is the method: (§1) Dose response tests with B5U were set-up in 96-well, flat bottomed plates. 200 μl medium was used in each well. 2 μl of 6 day old culture was added to each well, then 2 μl of DMSO or dilution of test compound were added to respective wells. 2-fold dilutions starting at 100 ppm were used per well. Plates were incubated at 25° C., 50 μmol/m^2/s, 16 hour photoperiod.
(§2) This was assessed by a visual inspection of growth in the 96-well plate. The inhibitor concentration at which no growth is observed is then defined as the LD.
(§3) Starting dose was 100 ppm and decreasing with 2-fold dilutions with C. fusca wt, the five HST mutants and the 10 compounds to which the wt is sensitive. Plates were incubated at 25° C., 50 μmol/m2/s, 16 hour photoperiod.

The next assay relates to Cf-496-94. The conditions noted are these: Cf-496-94 (F275L); 2-fold dilutions from 100 ppm. Here is the method:
as §1, §2, §3

A further assay concerns Cf-496-28. The conditions noted are these: Cf-496-28 (V276A); 2-fold dilutions from 100 ppm. The procedure: as §1, §2, §3
For another assay, the system named is Cf-496-19. The conditions noted are these: Cf-496-19 (F275I); 2-fold dilutions from 100 ppm. The procedure: as §1, §2, §3
The next assay has as its system Cf WT. The conditions noted are these: Cf WT; 2-fold dilutions from 100 ppm. The procedure:
as §1, §2, §3

Another assay concerns Cf-496-15. The conditions noted are these: Cf-496-15 (T277N); 2-fold dilutions from 100 ppm. The procedure: as §1, §2, §3

On to `Cc1nn(C)c(=O)c(-c2c(F)ccc(Cl)c2CCc2ccc(F)cc2)c1OC(=O)C(C)C` [B5p, [5-[3-chloro-6-fluoro-2-[2-(4-fluorophenyl)ethyl]phenyl]-1,3-dimethyl-6-oxo-pyridazin-4-yl]2-methylpropanoate], for which the “dose response to HST inhibiting compounds” value is more than 100 ppm in the assay on Cf-496-8; more than 100 ppm in the assay with Cf-496-94; more than 100 ppm in the assay on Cf-496-28; more than 100 ppm in the assay on Cf-496-19; 25 ppm in the assay with Cf WT; more than 100 ppm in the assay on Cf-496-15.
Turning to `Cc1nn(C)c(=O)c(-c2c(F)ccc(Cl)c2CCc2ccccc2C(F)(F)F)c1O` [B5m, 4-[3-chloro-6-fluoro-2-[2-[2-(trifluoromethyl)phenyl]ethyl]phenyl]-5-hydroxy-2,6-dimethyl-pyridazin-3-one], the “dose response to HST inhibiting compounds” value with Cf-496-8 was more than 100 ppm; in the assay with Cf-496-94 it was more than 100 ppm; with Cf-496-28 it was more than 100 ppm; in the assay on Cf-496-19 it was more than 100 ppm; with Cf WT it was 12.5 ppm; in the assay with Cf-496-15 it was more than 100 ppm.
